In US5935983A, “Use of phenylcyclohexylcarboxamides” (Bayer Aktiengesellschaft, priority 1995, dated 1999):

System: smooth muscle cells obtained from the aortas of pigs
Assay: inhibition of the proliferation of smooth muscle cells (3H-thymidine incorporation)
Type: cell-based, pig
Conditions: Sus scrofa; porcine aortic smooth muscle cells; half-maximal inhibition of the thymidine incorporation produced by 10% FCS; 3H-thymidine added after 16-20 h, further 4 h
Protocol: Investigation of the inhibition of the proliferation of smooth muscle cells by the compounds according to the invention
To determine the antiproliferative action of the compounds, smooth muscle cells are used which are obtained from the aortas of pigs by the media explant technique [R. Ross, J. Cell. Biol. 50, 172, 1971]. The cells are inoculated into suitable culture dishes, as a rule 96-hole plates, and cultured at 37° C. in 5% CO2 for 2-3 days in medium 199 containing 7.5% FCS and 7.5% NCS, 2 mM L-glutamine and 15 mM HEPES, pH 7.4. The cells are then synchronized by serum withdrawal for 2-3 days and then stimulated to growth using serum or other factors. Test compounds are added simultaneously. After 16-20 hours, ^3 H-thymidine is added and after a further 4 hours the incorporation of this substance into the TCA-precipitable DNA of the cells is determined. To determine the IC50 values, the active compound concentration is calculated which, on sequential dilution of the active compound, causes half-maximal inhibition of the thymidine incorporation produced by 10% FCS.

## NC(=O)C(NC(=O)C1CCCCC1c1ccc(Cn2c(C3CC3)nc3ccccc32)cc1)c1ccccc1 (stereo not shown) [Example 16]
  IC50: 0.28 nM
